Measurements from patent publication US20260108548A1, “COMPOSITION OF PAEONIFLORIN AND ISOLIQUIRITIGENIN AND USE THEREOF” (HENAN UNIVERSITY OF CHINESE MEDICINE, priority 2023, published 2026).

Legend:
Assay type in all cases: in vivo, SD rats
α-SMA = α-SMA expression in lung tissue by immunohistochemistry, Example 1
Protocol: (§1) A rat pulmonary fibrosis model was prepared using a one-time intratracheal instillation of bleomycin. After the rat was anesthetized by intraperitoneal injection of 10% chloral hydrate (3.0 ml/kg), it was tilted back and fixed on a rat board and irradiated with light source on the throat, and the glottis was seen to open and close in an orderly manner with breathing when the tongue was gently lifted to open the mouth. The indwelling needle was gently pushed into the trachea as the glottis opened and closed, the needle core was pulled out, and whether tracheal intubation was successful was verified by swing of a cotton thread. Bleomycin was injected into the trachea at a dose of 5 mg/kg, and 0.5 ml of air was further injected to ensure the depth of the drug. The rat was held upright and rocked from side to side to ensure even distribution of the drug in the lung. The anesthetized rat was placed on an electric blanket to maintain body temperature. After waking up, it is placed into a corresponding cage. The rats were fed normally until the 28th day, drinking pure water and eating sterile feed freely every day.
(§2) The modeling day was set as day 0.
(§3) The detection was performed by Immunohistochemistry.
(§4) The lung tissue was sliced into 4 μm sections and baked at 60° C. for 3 hours. The paraffin sections were dewaxed in xylene, dehydrated in gradient alcohols, and washed in distilled water for 2 minutes in order. The washed sections were then boiled in 0.01 M citrate buffer in a microwave oven for antigen retrieval. A 3% […] was added dropwise to the sections to block endogenous peroxidase. After the sections were blocked with a 5% BSA blocking solution and incubated at 37° C. for 30 minutes, the primary antibody was added dropwise thereto (the dilution ratio was 1:500 for CoL I, and 1:2000 for α-SMA), and the sections were incubated overnight in a humid box at 4° C. HRP-labeled goat anti-rabbit secondary antibody was added dropwise, and the sections were incubated at 37° C. for 20 minutes; and then SABC was added dropwise and the sections were incubated at 37° C. for 30 minutes. Thereafter, a freshly prepared DAB chromogenic solution was added dropwise, and the sections were observed under a microscope, and the color development was stopped once brownish yellow appeared. The sections were counterstained with hematoxylin for 30 seconds, differentiated with a 1% hydrochloric acid in alcohol for 3 seconds; and dehydrated in gradient alcohols in sequence. The sections were dried in a fume hood, sealed with neutral gum, and dried in the air. Images were collected with Olympus-DP70 microscope (Image-Pro Plus 6.0, IPP 6.0), 6 fields were randomly selected for each section, and the image integrated optical density (IOD) was calculated.

[1] = test system: rat pulmonary fibrosis model; assay: Lung tissue pathology, H&E and Masson staining, Szapiel scoring, Example 1
Protocol: as §1, §2
The left lung was fixed with 10% formaldehyde for 72 hours, embedded in paraffin, sectioned at 4 μm for HE and Masson staining.
Pathological scoring of alveolitis and pulmonary fibrosis was performed according to the Szapiel method, the degree of alveolitis was determined by HE staining, and the degree of pulmonary fibrosis was determined by Masson staining.
The pathological changes in lung tissue were observed using an optical microscope. 6 sections were selected from each group and 6 fields were selected from each section.

[2] = test system: rat pulmonary fibrosis model; assay: Lung tissue pathology, H&E and Masson staining, Szapiel scoring, Example 2
Protocol: The experimental materials and research methods were the same as those in Example 1. […] The modeling day was set as day 0. […] The left lung was fixed with 10% formaldehyde for 72 hours, embedded in paraffin, sectioned at 4 μm for HE and Masson staining. Pathological scoring of alveolitis and pulmonary fibrosis was performed according to the Szapiel method, the degree of alveolitis was determined by HE staining, and the degree of pulmonary fibrosis was determined by Masson staining. The pathological changes in the lung tissue were observed using an optical microscope. 6 sections were selected from each group and 6 fields were selected from each section.

[3] = test system: rat pulmonary fibrosis model; assay: Lung function in bleomycin pulmonary fibrosis rats, Example 2; conditions: isoliquiritigenin, paeoniflorin, combination each 0.55 mg/kg/d intragastric, day 29-42, X ± SE, N = 10
CoL I = CoL I expression in lung tissue by immunohistochemistry, Example 1
Protocol: as §1, §2, §3, §4

[4] = test system: rat pulmonary fibrosis model; assay: R value comprehensive evaluation of 8 indicators, Example 1
Protocol: The data were standardized and the Rcomprehensive value data set was established (Rcomprehensive=R−(−2)). […] When Rcomprehensive<1, it means that the comprehensive corrective degree of the drug on such indicators exceeds the normal value.
A total of 8 indicators, i.e., lung function (FVC, FEV0.3, IC, Cydn), lung tissue pathology (H&E staining, Masson staining), and collagen deposition (CoL I, α-SMA) were calculated using the R value comprehensive evaluation method.

[5] = test system: rat pulmonary fibrosis model; assay: Lung function in bleomycin pulmonary fibrosis rats, Example 2
Protocol: In order to evaluate the difference in the efficacy of isoliquiritigenin and paeoniflorin alone and in combination, a study was conducted by splitting the Formula 8 into isoliquiritigenin, paeoniflorin and combination thereof, each adopting the dose of 0.55 mg/kg/d.
The experimental materials and research methods were the same as those in Example 1.
A total of 72 rats were randomly divided into blank group, model group, isoliquiritigenin group, paeoniflorin group, combination group, and pirfenidone group, 6 groups in total, 12 rats in each group, and 6 female/group, 6 male/group. The modeling day was set as day 0. From the 29th day, the blank group (normal rats without modeling) and the model group were administered intragastrically with physiological saline (2 ml/rat), the isoliquiritigenin group was administered with isoliquiritigenin (0.55 mg/kg/d), the paeoniflorin group was administered with paeoniflorin (0.55 mg/kg/d), and the combination group was administered with isoliquiritigenin+paeoniflorin (0.55 mg/kg/d), once daily, for 14 days, and the samples were collected at the end of the 42nd day.
Before collecting the sample, the rats were anesthetized and submitted to a tracheotomy, and the tracheal tube was inserted into the rat's trachea and fixed. The FinePointe™ series PFT measurement system was used to detect the rat's forced vital capacity (FVC), forced expiratory volume in 0.3 s (FEV 0.3), vital capacity (VC), and dynamic lung compliance (Cydn).

[6] = test system: rat pulmonary fibrosis model; assay: Lung function (FinePointe PFT) in bleomycin pulmonary fibrosis rats, Example 1
Protocol: as §1, §2
Before collecting the sample, the rat was anesthetized and submitted to a tracheotomy, and the tracheal tube was inserted into the rat's trachea and fixed. The FinePointe™ series PFT measurement system was used to detect the rat's forced vital capacity (FVC), forced expiratory volume in 0.3 s (FEV 0.3), vital capacity (VC), and dynamic lung compliance (Cydn).

[7] = lung tissue IHC, doses per Table 4, 14 days, X ± SE, N = 6
[8] = isoliquiritigenin, paeoniflorin, combination each 0.55 mg/kg/d intragastric, day 29-42, X ± SE, N = 10
[9] = bleomycin 5 mg/kg intratracheal, intragastric once daily day 29-42, doses per Table 4, X ± SE, N = 10

For paeoniflorin [Formula 7], the “expression of α-SMA protein, compared with the model group” value (α-SMA; P<0.05) was “significantly reduced”, the “α-SMA (IOD)” value (α-SMA; [7]) was 10.57 ± 0.36 IOD and the “Alveolitis (score)” value ([1]; H&E staining, score 0-3, doses per Table 4, 14 days, X ± SE, N = 6) was 1.44 ± 0.27 score. For the same substance, the “Pulmonary fibrosis (score)” value ([1]; Masson staining, score 0-3, doses per Table 4, 14 days, X ± SE, N = 6) was 0.94 ± 0.16 score, the “pulmonary fibrosis scores, compared with the model group” value ([1]; P<0.01, P<0.05) was “significantly reduced” and the “Alveolitis (score)” value ([2]; H&E staining, each 0.55 mg/kg/d, 14 days, X ± SE, N = 6) was 1.52 ± 0.29 score. For the same substance, the “Pulmonary fibrosis (score)” value ([2]; Masson staining, each 0.55 mg/kg/d, 14 days, X ± SE, N = 6) was 1.65 ± 0.19 score, the “pulmonary fibrosis score, compared with the model group” value ([2]; P<0.01, P<0.05) was “could reduce” and the IC [3] was 9.62 ± 0.54 mL/s. For the same substance, the “expression of CoL I protein, compared with the model group” value (CoL I; P<0.01, P<0.05) was “significantly reduced”, the “COL I (IOD)” value (CoL I; [7]) was 13.61 ± 1.90 IOD and the “R value comprehensive evaluation, comparison between treatment groups” value [4] was “better than the Formula 3 (icariin), the Formula 4 (isoliquiritigenin), and the Formula 5 (nobiletin)”. For the same substance, the “Total efficacy related indicator R value” ([4]; 8 indicators, R=1 best effect, R=2 no corrective effect, X ± SE, N = 8) was 1.41 ± 0.27^##□▪, the “FEV0.3, compared with the model group” value ([5]; P<0.01, P<0.05) was “increased” and the “FVC, compared with the model group” value ([5]; P<0.01, P<0.05) was “increased”. The Cydn [5, 8] was 0.31 ± 0.54 mL/s, the FEV0.3 [5, 8] was 12.88 ± 0.98 mL/s and the FVC [5, 8] was 13.49 ± 1.17 mL/s. For the same substance, the “FEV0.3, compared with the model group” value ([6]; P<0.01, P<0.05) was “significantly increased”, the “FVC, compared with the model group” value ([6]; P<0.01, P<0.05) was “significantly increased” and the “IC, compared with the model group” value ([6]; P<0.01, P<0.05) was “significantly increased”. The “FEV0.3, compared with the pirfenidone group” value ([6]; P<0.05) was “increased”, the “FVC, compared with the pirfenidone group” value ([6]; P<0.05) was “increased” and the Cydn [6, 9] was 0.31 ± 0.03 mL/s. For the same substance, the FEV0.3 [6, 9] was 14.70 ± 1.25^##Δ ml/s, the FVC [6, 9] was 15.95 ± 1.36^##Δ ml/s and the IC [6, 9] was 9.84 ± 0.75 mL/s.
